Active and inactive are the calls of the source. No cut-off for these calls is given here.
Columns and labels:
[1] = tested on: Trypanosoma cruzi; experiment: Antitrypanosomal activity against Trypanosoma cruzi Dm28c epimastigotes assessed as non-viable epimastigotes at 10 umol/L after 4 hrs by MTT assay relative to untreated control; type: functional
[2] = Antioxidant activity assessed as hydroxyl radical scavenging activity after 5 mins by ESR spectroscopy; set-up: concentration or dose not given beside the values
[3] = tested on: Trypanosoma cruzi; experiment: Antitrypanosomal activity against Trypanosoma cruzi Dm28c epimastigotes assessed as non-viable epimastigotes at 100 umol/L after 4 hrs by MTT assay relative to untreated control; type: functional
[4] = Antioxidant activity assessed as compound compete with DMPO for hydroxyl radicals by ESR assay; type: functional

SMILES: Cc1ccc2oc(=O)c(C(=O)c3ccc(O)c(O)c3)cc2c1
- Activity [1]: 27.9%
- Activity [2]: 82.1%
- Activity [3]: 47.9%

SMILES: O=C(c1ccc(O)c(O)c1)c1cc2ccccc2oc1=O
- Activity [1]: 23.8%
- Activity [2]: 84.6%
- Activity [3]: 38.7%

SMILES: O=C(c1ccc(O)c(O)c1)c1cc2cc(O)ccc2oc1=O
- Activity [1]: 18.9%
- Activity [2]: 84.8%
- Activity [3]: 46.4%

SMILES: O=C(c1ccc(O)c(O)c1)c1cc2c(O)cc(O)cc2oc1=O
- Activity [1]: inactive
- Activity [2]: 84.2%
- Activity [3]: inactive

SMILES: CC1CS(=O)(=O)CCN1/N=C/c1ccc([N+](=O)[O-])o1 (stereo not drawn) [NIFURTIMOX]
- Activity [1]: 52.5%
- Activity [3]: 100%

SMILES: O=C(c1ccc(O)c(O)c1)c1cc2cc(Br)cc(O)c2oc1=O
- Activity [1]: 9.5%
- Activity [2]: 90.9%
- Activity [3]: 24.1%
- Activity [4]: Active
